The values that follow come from patent publication US7919475B2, “Compositions and methods for improving heart function” (The Regents of The University of California, priority 2004, dated 2011).

For one test, the system named is nuclear O-GlcNAcylation. As to the kind of experiment: Nuclear O-GlcNAcylation by Western immunoblot (antibody 110.6) in neonatal cardiomyocytes. The format is cell-based, rat. To be noted: 72 hours; 25 mM glucose; 5.5 mM glucose with 8 mM glucosamine or 50 μM PUGNAc; 25 mM glucose with adenovirus MOI 25. In general terms: A western blot detects proteins with antibodies after separation by electrophoresis.

The test system of test [1] is neonatal rat cardiomyocytes. The test can be described thus: Indo-1 [Ca2+]i transients in cultured neonatal cardiomyocytes. The format is cell-based. To be noted: for time to achieve a 50% decrease in the calcium transient (T1/2): 5.5 mM glucose supplemented with 8 mM glucosamine or 50 μM PUGNAc, 72 hours; for increase in diastolic calcium decay relative to controls: 5.5 mM glucose with 8 mM glucosamine or 50 μM PUGNAc. The method, then:
(§1) Cardiomyocyte Isolation and Culture. Primary cultures of neonatal rat cardiomyocytes were prepared as described previously, see, e.g., Hartong (1996) J. Mol. Cell. Cardiol. 28:2467-2477. Cells were plated onto gelatin-coated culture dishes or laminin-coated glass chamber slides. Plating medium consisted of 4.25:1 DMEM:M199, 10% horse serum, 5% fetal bovine serum, 1% penicillin/streptomycin/fungizone (PSF), and 5.5 mM D-glucose. Cells were allowed to adhere to the plates for 24 hours before changing to basic experimental culture medium (4.5:1 DMEM:M199, 2% fetal bovine serum, 1% PSF, and 100 μM insulin) and supplemented with glucose at either physiological (5.5 mM; normal glucose) or elevated (25 mM; high glucose) concentrations. For some experiments, media was supplemented with 8 mM glucosamine, 40 μM aminoguanidine, 0.5 μg/ml tunicamycin, 50 μM PUGNAc or an osmotic control (20 mM mannitol). In cases where cells were plated at exceptionally high density (5×10^6 per 100 mm plate), the culture medium was changed daily until the cells were harvested.
Construction of adenoviral vectors. The rat cDNA corresponding to the UDP-N-acetylglucosamine:peptide N-acetylglucosaminyl transferase gene (O-GlcNAc transferase; OGT), which encodes the enzyme responsible for the O-linkage of single N-acetylglucosamine molecules to serine/threonine residues (19), and the human cDNA encoding the O-GlcNAcase gene (GCA), the enzyme responsible for removing O-linked N-acetylglucosamine residues (see, e.g., Haltiwanger (1992) J. Biol. Chem. 267:9005-9013). Each cDNA was inserted into the E1 region of an adenoviral vector construct using previously described methods (see, e.g., Gao (2001) J. Biol. Chem. 276:9838-9845). Replication-deficient adenovirus particles containing the target gene or empty vector (SR−) were generated by in vivo recombination in 293 cells and single plaques were isolated and propagated to achieve high titer. Adenoviral particles were CsCl-purified and quantified by plaque titer assay. Myocytes were infected with a multiplicity of infection (MOI) of 25 for all viruses.
Measurement of [Ca^2+]I transients. Indo-1 facilitated measurement of Ca^2+ transients has been described previously, see, e.g., He (1997) J. Clin. Invest 100:380-389). […] Cells were rinsed and incubated for 20 min at RT in appropriate serum-free culture medium containing 1.8 mM CaCl2 prior to making fluorescence measurements to allow for deesterification of the Indo-1/AM. […] Transients were measured from at least 18 cells per slide per treatment. […]
Calcium transients. To determine whether elevated extracellular glucose and increased O-GlcNAcylation would exert an effect on intracellular calcium flux, Indo-1 calcium transients were determined in neonatal rat cardiomyocytes. […]

Another test deals with CB6F1 mice. As to the kind of experiment: Blood glucose and cardiac UDP-sugar nucleotides in streptozocin-injected mice. The format is in vivo, mouse. The note with it: streptozocin 150 mg/kg intraperitoneal, three weeks. The method, then: Animals and Determination of Cardiac Sugar Nucleotides. Male CB6F1 mice weighing 20-25 g (Charles River, Wilmington, Mass.) were made diabetic using methods described previously, see, e.g., Trost (2002) supra. Briefly, diabetes was induced with a single intraperitoneal injection of streptozocin (150 mg/kg in citrate saline, pH 4.5) to animals fasted overnight (16 hrs). Diabetic animals were sacrificed three weeks following injection. To determine the degree of diabetes, blood was drawn via direct cardiac puncture in CO2-euthanized animals and plasma glucose concentration was determined using the Sigma Glucose Kit (510-A).
Sugar nucleotides were extracted from fresh ventricles and quantified by HPLC as described by Weckbecker (1983) Anal. Biochem. 132:405-412. Hearts were homogenized in 3 vols of ice-cold 0.3 M HClO4 and debris pelleted at 10,000×g for 15 min at 4° C. Two vols of 1:4 trioctylamine: 1,1,2-trichlorotrifluoroethane (Freon) were added to the supernatant, followed by vortexing for 30 sec and centrifuging at 1000×g for 5 min at 4° C. The aqueous phase was carefully transferred to a fresh tube and frozen at −80° C. until assayed. Samples were diluted in 0.5 ml H2O and desalted on a Mono-Q column (flow rate 1 ml/min). The combined UDP-GlcNAc/GalNAc fraction was collected as a peak at 23 minutes and the sample was lyophilized overnight. Dried samples were subsequently dissolved in borate solution (0.22 M boric acid, 0.09 M disodium tetraborate, and 1.2 M glycerol, pH 6.85), and separated into distinct UDP-GlcNAc and UDP-GalNAc peaks on a Partisil SAX-10 column. […]
Effects of STZ-induced diabetes on UDP-nucleotide levels. […] Blood was drawn via direct cardiac puncture and plasma [glucose] was subsequently determined using a Sigma Glucose kit. Sugar nucleotides were extracted immediately from hearts and quantitated using HPLC as described in “Experimental Procedures” above. […] Fractions were quantified by comparing total peak area with results from known concentrations of each sugar nucleotide.

The test system of the next test is SERCA2a. The test can be described thus: SERCA2a protein level by Western immunoblot in neonatal cardiomyocytes. The format is cell-based, rat. The note with it: for influence on SERCA2a protein levels: 40 μM aminoguanidine or 0.5 μg/ml tunicamycin, regardless of glucose concentration. The method, then: as §1
Western Immunoblotting. To determine SERCA2a protein levels, myocytes (1×10^6) were washed with phosphate buffered saline (PBS), then extracted with 0.2 ml lysis buffer (20 mM Tris, pH 7.4, 20 mM NaCl, 0.1 mM EDTA, 1% Triton X-100, 0.5% Na-deoxycholate, 1 mM dithiothreitol). Lysates were incubated on ice for 30 min, and cellular debris was pelleted at 10,000×g for 20 min at 4° C. Protein concentration in the supernatant was determined by BioRad protein reagent. 30 μg of protein diluted in extraction buffer and 4× Laemmli sample buffer were loaded without boiling onto pre-cast 4-20% Tris-glycine gels. Separated proteins were transferred to nylon membranes using a Bio-Rad Mini Trans-Blot apparatus and blocked overnight at 4° C. Blots were incubated with a rabbit polyclonal SERCA2a antibody (see, e.g., Hartong (1996) supra) (1:5000) for 1 hour at RT, followed by a 1 hour incubation with a 1:5000 dilution of goat anti-rabbit IgG-HRP conjugated secondary antibody (Amersham). Bands were visualized by reacting with chemiluminescent substrate (NEN) and exposed to film. Protein bands were quantified from scanned images using Scion imaging software (Scion, Frederick, Md.).
SERCA2a in RNA, protein expression and promoter activity. […] FIG. 2 illustrates Northern and western blots of neonatal cardiomyocytes. (FIG. 2A) Results of a northern blot for SERCA2a mRNA in neonatal cardiomyocytes cultured for 72 hours with 5.5 mM (NG) or 25 mM (HG) glucose. Total RNA (15 μg) isolated from cultured myocytes was resolved using a denaturing agarose gel, transferred to a nylon membrane and probed with a full length ^32P-labeled probe corresponding to rat SERCA2a as described in “Experimental Procedures”. (FIG. 2B) Western immunoblot analysis of SERCA2a protein levels from neonatal cardiomyocytes exposed to 5.5 mM or 25 mM glucose in the presence and absence of 40 μM aminoguanidine (AG), 0.5 μg/ml tunicamycin (Tun), or 8 mM glucosamine (GlcN, 5.5 mM glucose group only). Crude lysates (30 μg) were resolved using 4-20% gradient SDS-PAGE gels, transferred to nylon membranes, and immunoblotted with a SERCA2a polyclonal antibody as described in “Experimental Procedures”. […] (C) SERCA2a protein levels based on Western immunoblots from adenovirus-infected neonatal cardiomyocytes.

A further test deals with rat SERCA2a promoter. The test can be described thus: SERCA2a promoter luciferase assay in neonatal cardiomyocytes. The format is cell-based. To be noted: 5.5 mM glucose/8 mM glucosamine. As to the method: Transfections and SERCA2a Promoter Luciferase Assays. DNA transfection of neonatal cardiomyocytes was performed using the calcium phosphate-DNA co-precipitation method, see, e.g., Chen (1987) Mol. Cell. Biol 7:2745-2752. Cells (0.5×10^6) were transfected overnight in appropriate culture medium (either NG- or HG-containing medium) with 50 ng of either a 0.6 kb fragment of the rat SERCA2a promoter (corresponding to the 600 bases immediately upstream of the transcriptional start codon) (see, e.g., Rohrer (1991) J. Biol. Chem. 266:8638-8646) or a control plasmid (pGL3; Promega) and 3 μg of fill plasmid (pBS; Stratagene), then washed with PBS and changed into fresh culture medium. […] Transfected cells were incubated for 48 hours, then washed with PBS and incubated for 10 min with gentle agitation at RT in 200 μl of harvest buffer (50 mM MES/Tris pH 7.8, 0.1% Triton X-100, and 1.3 mM dithiothreitol). Luciferase activity was measured using 100 μl of extract in a luminometer.
The reduction in SERCA2a mRNA and protein expression observed following treatment of myocytes with high glucose prompted us to examine whether these effects were being exerted, at least in part, by interactions with the SERCA2a gene promoter. […] Crude cell lysates were incubated with luciferase substrate and relative light units were measured on a luminometer. […]

The next test has as its system MEF-2a. The test can be described thus: MEF-2a protein level by immunoblot of nuclear extracts of neonatal cardiomyocytes. The format is cell-based, rat. The note with it: 25 mM glucose; 5.5 mM glucose with 8 mM glucosamine; 25 mM glucose with adeno-OGT MOI 25.

Experimental for MEF-2a: To examine cellular O-GlcNAcylation and MEF-2a levels, nuclear extracts were prepared from neonatal cardiomyocytes (2×10^6) using modifications of the procedures described by Dignam (1983) Nucleic Acids Res. 11:1475-1489. Samples of each extract (25-50 μg) were fractionated by SDS-PAGE on precast 4-20% Tris-glycine gels (BioRad) and transferred to nylon membranes. Membranes were blocked overnight, exposed to the O-GlcNAc-specific antibody 110.6 (17) (1:10,000) overnight at 4° C., then exposed for 1 hour to 1:5,000 goat anti-mouse IgM-HRP. Alternatively, membranes were exposed to anti-MEF-2 (1:200) for one hour at RT followed by a one hour exposure to 1:10,000 goat anti-rabbit IgG-HRP. Visualization and quantification was as described above.
Nuclear extracts (50 μg) were prepared as described in “Experimental Procedures” above, resolved on 10% SDS-PAGE gels, transferred to nylon membranes and immunoblotted with anti-MEF2 antibody (Santa Cruz Biotech).
Experimental for nuclear O-GlcNAcylation: Samples of each extract (25-50 μg) were fractionated by SDS-PAGE on precast 4-20% Tris-glycine gels (BioRad) and transferred to nylon membranes. Membranes were blocked overnight, exposed to the O-GlcNAc-specific antibody 110.6 (17) (1:10,000) overnight at 4° C., then exposed for 1 hour to 1:5,000 goat anti-mouse IgM-HRP. Alternatively, membranes were exposed to anti-MEF-2 (1:200) for one hour at RT followed by a one hour exposure to 1:10,000 goat anti-rabbit IgG-HRP. Visualization and quantification was as described above.
Cells were cultured for 72 hours in 5.5 mM glucose (NG) or 25 mM glucose (HG) and supplemented with one of the following: 8 mM glucosamine (NG/GlcN), 50 μM PUGNAc, or adenovirus encoding either OGT or GCA. Adenoviruses were applied at an MOI=25. Nuclear extracts (50 μg) were prepared according to the methods outlines in “Experimental Procedures”, resolved on 4-20% gradient SDS-tricine gels, transferred to nylon membranes and immunoblotted with a monoclonal anti-O-GlcNAc antibody 110.6.

Turning to `CC(=O)N[C@H]1/C(=N/OC(=O)Nc2ccccc2)O[C@H](CO)[C@@H](O)[C@@H]1O` [PUGNAc, O-(2-acetamido-2-deoxy-D-glucopyranosylidene)amino-N-phenyl carbamate], the “overall levels of nuclear O-GlcNAcylation” value in the test with nuclear O-GlcNAcylation is “substantially increased”. Also, in test [1], the “time to achieve a 50% decrease in the calcium transient (T1/2)” value worked out at 1.31 ± 0.085 s and the “increase in diastolic calcium decay relative to controls” value was 43%.
On to `CN(N=O)C(=O)N[C@@H](C=O)[C@@H](O)[C@H](O)[C@H](O)CO` [STZ, streptozocin], for which, in the test with CB6F1 mice, the UDP-GalNAc in heart worked out at 0.51 ± 0.01 nmol, the UDP-GlcNAc in heart is 1.36 ± 0.03 nmol and the blood glucose was 969 ± 40 mg/dL.
In the case of `N=C(N)NN` [aminoguanidine], the “influence on SERCA2a protein levels” value in the test with SERCA2a is listed as “Neither aminoguanidine nor tunicamycin appeared to influence SERCA2a protein levels”. In addition, in the test on SERCA2a (25 mM glucose and 40 μM aminoguanidine, repeated trials), the “apparent increase in SERCA2a vs controls” value is recorded as “not statistically significant”.
For the molecule `N[C@H]1C(O)O[C@H](CO)[C@@H](O)[C@@H]1O` (some centres unmarked) [glucosamine], the “reduction in SERCA2a promoter activity compared with normal glucose controls” value in the test with rat SERCA2a promoter worked out at 33%. The “change in SERCA2a protein compared with controls” value in the test with SERCA2a (5.5 mM glucose and 8 mM glucosamine) was −25±3%. Besides, the “SERCA2a protein levels compared with myocytes exposed only to 5.5 mM glucose” value in the test with SERCA2a (25 mM glucose and glucosamine) is “unchanged”. For the same molecule, the “decrease in MEF-2a expression levels compared with normal glucose controls” value with MEF-2a stood at 52%. For the same molecule, in the test on nuclear O-GlcNAcylation, the “overall levels of nuclear O-GlcNAcylation” value is “substantially increased”. For the same molecule, in test [1], the “time to achieve a 50% decrease in the calcium transient (T1/2)” value came out at 1.32 ± 0.061 s and the “increase in diastolic calcium decay relative to controls” value was 43%.
For the molecule `OC[C@@H](O)[C@@H](O)[C@H](O)[C@H](O)CO` [mannitol], the “osmotic effect on SERCA2a protein levels” value in the test on SERCA2a (5.5 mM glucose and 20 mM mannitol) is listed as “nor did we observe any osmotic effect”.
Regarding tunicamycin, the “influence on SERCA2a protein levels” value with SERCA2a was “Neither aminoguanidine nor tunicamycin appeared to influence SERCA2a protein levels”.
